According to patent US12133936B2, “Surgical system and methods of use” (priority 2021, dated 2024):

Key:
[1] = in vivo
From the text: (§1) However, in some embodiments, however, higher doses of tranexamic acid are used for topical applications to account for tranexamic acid being widely distributed throughout the extracellular and intracellular compartments when given preoperatively.

[2] = test system: fibrinolysis; experiment: prevention / reversal of fibrinolysis; settings: one tenth of the doses used in the non-GLP acute porcine study
From the text: as §1

[3] = test system: myofibroblast formation; settings: Ajmal et al. (2003); cited from earlier work

time to reach plasma concentrations [1] [min]	Structure (SMILES)	reversing fibrinolysis [2]	myofibroblast formation [3]
5 to 15	NC[C@H]1CC[C@H](C(=O)O)CC1 [tranexamic acid, trans-4-(aminomethyl)cyclohexanecarboxylic acid]	effective in reversing fibrinolysis	–
–	O=S(=O)([O-])CCS.[Na+] [MESNA, sodium 2-mercaptoethane sulfonate]	–	diminish myofibroblast formation
